Measurements from ChEMBL document CHEMBL3885881, “DrugMatrix”.

Legend:
[1] = species on record: Rattus norvegicus; assay: DrugMatrix - Regimen: Daily Repeat; format: toxicity, organism-based, Sprague-Dawley; design: regimen Daily Repeat, gender Male, age 6-8 weeks; conditions: in vivo, po, 60 mg/kg, route oral GAVAGE, dose level High, vehicle 100 % WATER
[2] = species on record: Rattus norvegicus; format: toxicity, organism-based, Sprague-Dawley; conditions: in vivo, po, 60 mg/kg, 24 h, route oral GAVAGE, dose level High, time 1 day, vehicle 100 % WATER
Description: DrugMatrix - Regimen: Single

[3] = […], tissue Plasma, time 14 day

**Q.** Which results are given for `Nc1ccc(O)c(N)c1` [2,4-DIAMINOPHENOL]?
**A.** URIC ACID ([1]; 120 h, tissue Plasma, time 5 day): 0.67 mg/dL; ABSOLUTE BASOPHIL ([1]; […], tissue Blood, time 14 day): 0 CELLS/uL; ABSOLUTE EOSINOPHIL ([1]; […], tissue Blood, time 14 day): 124 CELLS/uL; ABSOLUTE LYMPHOCYTE ([1]; […], tissue Blood, time 14 day): 13347.2 CELLS/uL; ABSOLUTE MONOCYTE ([1]; […], tissue Blood, time 14 day): 291 CELLS/uL; ABSOLUTE SEGMENTED NEUTROPHIL ([1]; […], tissue Blood, time 14 day): 2297.8 CELLS/uL; BASOPHIL ([1]; […], tissue Blood, time 14 day): 0%; EOSINOPHIL ([1]; […], tissue Blood, time 14 day): 0.8%; ERYTHROCYTE COUNT ([1]; […], tissue Blood, time 14 day): 5.92 x10E6/uL; HEMATOCRIT ([1]; […], tissue Blood, time 14 day): 34.56%; HEMOGLOBIN ([1]; […], tissue Blood, time 14 day): 13 G/DL; LEUKOCYTE COUNT ([1]; […], tissue Blood, time 14 day): 16.06 x10E3/uL; LYMPHOCYTE ([1]; […], tissue Blood, time 14 day): 83%; MEAN CORPUSCULAR HEMOGLOBIN ([1]; […], tissue Blood, time 14 day): 22.04 pg; MEAN CORPUSCULAR HEMOGLOBIN CONCENTRATION ([1]; […], tissue Blood, time 14 day): 37.6 G/DL; MEAN CORPUSCULAR VOLUME ([1]; […], tissue Blood, time 14 day): 58.5 fL; MONOCYTE ([1]; […], tissue Blood, time 14 day): 1.8%; NEUTROPHIL ([1]; […], tissue Blood, time 14 day): 14.4%; NUCLEATED RED BLOOD CELLS ([1]; […], tissue Blood, time 14 day): 0 /100WBC; PLATELET COUNT ([1]; […], tissue Blood, time 14 day): 944.4 x10E3/uL; ALANINE AMINOTRANSFERASE [1, 3]: 40.4 u/L; ALBUMIN [1, 3]: 4.32 G/DL; ALKALINE PHOSPHATASE [1, 3]: 271.4 u/L; ASPARTATE AMINOTRANSFERASE [1, 3]: 76.6 u/L; BLOOD UREA NITROGEN [1, 3]: 13.6 mg/dL; CARBON DIOXIDE [1, 3]: 30.4 mmol/L; CHLORIDE [1, 3]: 101.8 MEQ/L; CHOLESTEROL [1, 3]: 67.4 mg/dL; CREATININE [1, 3]: 0.15 mg/dL; GLUCOSE [1, 3]: 150 mg/dL; LACTATE DEHYDROGENASE [1, 3]: 271.8 u/L; LIPASE [1, 3]: 7.8 u/L; PHOSPHORUS [1, 3]: 13.62 mg/dL; POTASSIUM [1, 3]: 6.71 MEQ/L; SODIUM [1, 3]: 145.8 MEQ/L; TOTAL BILIRUBIN [1, 3]: 0.14 mg/dL; TOTAL PROTEIN [1, 3]: 6.06 G/DL; URIC ACID [1, 3]: 1.14 mg/dL; ABSOLUTE EOSINOPHIL ([2]; tissue Blood): 80.67 CELLS/uL; ABSOLUTE LYMPHOCYTE ([2]; tissue Blood): 10585.67 CELLS/uL; ABSOLUTE MONOCYTE ([2]; tissue Blood): 630.67 CELLS/uL; ABSOLUTE SEGMENTED NEUTROPHIL ([2]; tissue Blood): 1169.67 CELLS/uL; BASOPHIL ([2]; tissue Blood): 0%; EOSINOPHIL ([2]; tissue Blood): 0.67%; ERYTHROCYTE COUNT ([2]; tissue Blood): 4.98 x10E6/uL; HEMATOCRIT ([2]; tissue Blood): 31.37%; HEMOGLOBIN ([2]; tissue Blood): 11.7 G/DL; LEUKOCYTE COUNT ([2]; tissue Blood): 12.47 x10E3/uL; LYMPHOCYTE ([2]; tissue Blood): 85%; MEAN CORPUSCULAR HEMOGLOBIN ([2]; tissue Blood): 23.63 pg; MEAN CORPUSCULAR HEMOGLOBIN CONCENTRATION ([2]; tissue Blood): 37.37 G/DL; MEAN CORPUSCULAR VOLUME ([2]; tissue Blood): 63.17 fL; MONOCYTE ([2]; tissue Blood): 5%; NEUTROPHIL ([2]; tissue Blood): 9.33%; NUCLEATED RED BLOOD CELLS ([2]; tissue Blood): 0 /100WBC; PLATELET COUNT ([2]; tissue Blood): 963 x10E3/uL; ALANINE AMINOTRANSFERASE ([2]; tissue Plasma): 60.67 u/L; ALBUMIN ([2]; tissue Plasma): 4.43 G/DL; ALKALINE PHOSPHATASE ([2]; tissue Plasma): 366.33 u/L; ASPARTATE AMINOTRANSFERASE ([2]; tissue Plasma): 78.33 u/L; BLOOD UREA NITROGEN ([2]; tissue Plasma): 12 mg/dL; CARBON DIOXIDE ([2]; tissue Plasma): 27 mmol/L; CHLORIDE ([2]; tissue Plasma): 103.33 MEQ/L; CHOLESTEROL ([2]; tissue Plasma): 77.33 mg/dL; CREATININE ([2]; tissue Plasma): 0.13 mg/dL; GLUCOSE ([2]; tissue Plasma): 149 mg/dL; LACTATE DEHYDROGENASE ([2]; tissue Plasma): 159 u/L; LIPASE ([2]; tissue Plasma): 8 u/L; PHOSPHORUS ([2]; tissue Plasma): 12.77 mg/dL; POTASSIUM ([2]; tissue Plasma): 6.85 MEQ/L; SODIUM ([2]; tissue Plasma): 145.33 MEQ/L; TOTAL BILIRUBIN ([2]; tissue Plasma): 0.1 mg/dL; TOTAL PROTEIN ([2]; tissue Plasma): 6 G/DL; URIC ACID ([2]; tissue Plasma): 1.37 mg/dL
